# Key:
# HeLa (Ohio strain)cells = assay: Cytotoxicity (MTT, without virus), HeLa(Ohio); conditions: HeLa(Ohio), no virus, incubated for 4 days
# HRV8(MRH) = assay: Anti-rhinovirus spectrum (MTT), HRV8; assay type: cell-based, human rhinovirus; set-up: Anti-Rhinovirus activity, HRV8: unit not given here
# HRV10 (204-CV14) = assay: Anti-rhinovirus spectrum (MTT), HRV10; assay type: cell-based, human rhinovirus; set-up: Anti-Rhinovirus activity, HRV10: unit not given here
# HRV 2 (HGP) = assay: Anti-rhinovirus activity (MTT), HRV2; assay type: cell-based, human rhinovirus; set-up: Anti-Rhinovirus activity, HRV2: unit not given here; conditions: for IC50 HRV2: HeLa (Ohio strain) cells, MTT method, 33° C.
# HRV 89 (41617-Gallo) = assay: Anti-rhinovirus activity (MTT), HRV89; assay type: cell-based, human rhinovirus; set-up: Anti-Rhinovirus activity, HRV89: unit not given here; conditions: for IC50 HRV89: HeLa (Ohio strain) cells, MTT method, 33° C.
# [1] = tested on: clinical isolate (89229T); assay: microbe, parasite or virus in culture; assay type: cell-based, human rhinovirus; set-up: Anti-Rhinovirus activity, Clinical isolated strain: unit not given here
# HRV3(FEB) = assay: Anti-rhinovirus spectrum (MTT), HRV3; assay type: cell-based, human rhinovirus; set-up: Anti-Rhinovirus activity, HRV3: unit not given here
# HRV5 = assay: Anti-rhinovirus spectrum (MTT), HRV5; assay type: cell-based, human rhinovirus; set-up: Anti-Rhinovirus activity, HRV5: unit not given here
# HRV50(A2#58) = assay: Anti-rhinovirus spectrum (MTT), HRV50; assay type: cell-based, human rhinovirus; set-up: Anti-Rhinovirus activity, HRV50: unit not given here
# HRV14 (1059) = assay: Anti-rhinovirus activity (MTT), HRV14; assay type: cell-based, human rhinovirus; set-up: Anti-Rhinovirus activity, HRV14: unit not given here; conditions: for IC50 HRV 14: HeLa (Ohio strain) cells, MTT method, 33° C.
# HRV13 (353) = assay: Anti-rhinovirus spectrum (MTT), HRV13; assay type: cell-based, human rhinovirus; set-up: Anti-Rhinovirus activity, HRV13: unit not given here
# HRV31 (41F) = assay: Anti-rhinovirus spectrum (MTT), HRV31; assay type: cell-based, human rhinovirus; set-up: Anti-Rhinovirus activity, HRV31: unit not given here
# HRV33 (1200) = assay: Anti-rhinovirus spectrum (MTT), HRV33; assay type: cell-based, human rhinovirus; set-up: Anti-Rhinovirus activity, HRV33: unit not given here
# HRV1A (E28) = assay: Anti-rhinovirus activity (MTT), HRV1A; assay type: cell-based, human rhinovirus; set-up: Anti-Rhinovirus activity, HRV1A: unit not given here; conditions: for IC50 HRV 1A: HeLa (Ohio strain) cells, MTT method, 33° C.
# HRV21 (47) = assay: Anti-rhinovirus spectrum (MTT), HRV21; assay type: cell-based, human rhinovirus; set-up: Anti-Rhinovirus activity, HRV21: unit not given here
# HRV61 (6669-CV39) = assay: Anti-rhinovirus spectrum (MTT), HRV61; assay type: cell-based, human rhinovirus; set-up: Anti-Rhinovirus activity, HRV61: unit not given here
# HRV32 (363) = assay: Anti-rhinovirus spectrum (MTT), HRV32; assay type: cell-based, human rhinovirus; set-up: Anti-Rhinovirus activity, HRV32: unit not given here
# HRV16 (11757) = assay: Anti-rhinovirus spectrum (MTT), HRV16; assay type: cell-based, human rhinovirus; set-up: Anti-Rhinovirus activity, HRV16: unit not given here
# HRV36 (342H) = assay: Anti-rhinovirus spectrum (MTT), HRV36; assay type: cell-based, human rhinovirus; set-up: Anti-Rhinovirus activity, HRV36: unit not given here
# HRV29 (5582) = assay: Anti-rhinovirus spectrum (MTT), HRV29; assay type: cell-based, human rhinovirus; set-up: Anti-Rhinovirus activity, HRV29: unit not given here
# HRV41 (56110) = assay: Anti-rhinovirus spectrum (MTT), HRV41; assay type: cell-based, human rhinovirus; set-up: Anti-Rhinovirus activity, HRV41: unit not given here
# HRV39 (209) = assay: Anti-rhinovirus spectrum (MTT), HRV39; assay type: cell-based, human rhinovirus; set-up: Anti-Rhinovirus activity, HRV39: unit not given here
# [2] = tested on: human rhinovirus type 1B (HRV 1B, B632); assay: Anti-rhinovirus activity (MTT), HRV1B; assay type: cell-based; set-up: Anti-Rhinovirus activity, HRV1B: unit not given here; conditions: for IC50 HRV1B: HeLa (Ohio strain) cells, MTT method, 33° C.
# [3] = tested on: Poliovirus type 1 (Polio 1, Sabin); assay: microbe, parasite or virus in culture; assay type: cell-based
# [4] = tested on: coxsackievirus type B4 (CB4,JVB); assay: In vitro anti-picornavirus activity (MTT), CB4; assay type: cell-based; conditions: HeLa cells, MTT method, 37° C.
# HeLa cells = assay: Cytotoxicity (MTT, without virus), HeLa; conditions: HeLa, no virus, incubated for 4 days
# [5] = tested on: coxsackievirus type A7 (CA7); assay: In vitro anti-picornavirus activity (MTT), CA7; assay type: cell-based; conditions: HeLa-S3 cells, MTT method, 37° C.
# [6] = tested on: echovirus type 11 (Echo 11, Gregory); assay: In vitro anti-picornavirus activity (MTT), Echo 11; assay type: cell-based; conditions: HeLa-S3 cells, MTT method, 37° C.
# HeLa-S3 cells = assay: Cytotoxicity (MTT, without virus), HeLa-S3; conditions: HeLa-S3, no virus, incubated for 4 days
smiles,measurement,setting,value
Cc1c(-c2ccccc2)n(-c2cccc(F)c2)c2ccc(C(C)C)cc2c1=O [Compound A322],Cytotoxicity CC50 HeLa(Ohio),HeLa (Ohio strain)cells,>1 µg/mL
same,"Anti-Rhinovirus activity, HRV8","HRV8(MRH); Table VII, rhinovirus serotype HRV8",>1.0
same,"Anti-Rhinovirus activity, HRV10","HRV10 (204-CV14); Table VII, rhinovirus serotype HRV10",0.013
same,IC50 HRV2,HRV 2 (HGP),0.030 µg/mL
same,"Anti-Rhinovirus activity, HRV2","HRV 2 (HGP); Table VII, rhinovirus serotype HRV2",0.030
same,IC50 HRV89,HRV 89 (41617-Gallo),0.034 µg/mL
same,"Anti-Rhinovirus activity, HRV89","HRV 89 (41617-Gallo); Table VII, rhinovirus serotype HRV89",0.034
same,Anti-rhinovirus activity Clinically isolated strain,"[1]; Table VII, clinical isolate (89229T)",0.017
same,"Anti-Rhinovirus activity, HRV3","HRV3(FEB); Table VII, rhinovirus serotype HRV3",>1.0
same,"Anti-Rhinovirus activity, HRV5","HRV5; Table VII, rhinovirus serotype HRV5",>1.0
same,"Anti-Rhinovirus activity, HRV50","HRV50(A2#58); Table VII, rhinovirus serotype HRV50",0.023
same,"Anti-Rhinovirus activity, HRV14","HRV14 (1059); Table VII, rhinovirus serotype HRV14",>1.0
same,"Anti-Rhinovirus activity, HRV13","HRV13 (353); Table VII, rhinovirus serotype HRV13",0.029
same,"Anti-Rhinovirus activity, HRV31","HRV31 (41F); Table VII, rhinovirus serotype HRV31",0.045
same,"Anti-Rhinovirus activity, HRV33","HRV33 (1200); Table VII, rhinovirus serotype HRV33",0.17
same,"Anti-Rhinovirus activity, HRV1A","HRV1A (E28); Table VII, rhinovirus serotype HRV1A, same method as above",>1.0
same,"Anti-Rhinovirus activity, HRV21","HRV21 (47); Table VII, rhinovirus serotype HRV21",0.048
same,"Anti-Rhinovirus activity, HRV61","HRV61 (6669-CV39); Table VII, rhinovirus serotype HRV61",0.29
same,"Anti-Rhinovirus activity, HRV32","HRV32 (363); Table VII, rhinovirus serotype HRV32",0.020
same,"Anti-Rhinovirus activity, HRV16","HRV16 (11757); Table VII, rhinovirus serotype HRV16",0.030
same,"Anti-Rhinovirus activity, HRV36","HRV36 (342H); Table VII, rhinovirus serotype HRV36",0.085
same,"Anti-Rhinovirus activity, HRV29","HRV29 (5582); Table VII, rhinovirus serotype HRV29",0.080
same,"Anti-Rhinovirus activity, HRV41","HRV41 (56110); Table VII, rhinovirus serotype HRV41",0.034
same,"Anti-Rhinovirus activity, HRV39","HRV39 (209); Table VII, rhinovirus serotype HRV39",0.012
same,IC50 HRV1B,[2],0.18 µg/mL
same,"Anti-Rhinovirus activity, HRV1B","[2]; Table VII, rhinovirus serotype HRV1B",0.18
CCn1c2c(c(=O)c3cc(C(C)C)ccc31)Cc1ccccc1-2.Cl [Compound B3],Cytotoxicity CC50 HeLa(Ohio),HeLa (Ohio strain)cells,>4 µg/mL
same,"Anti-Rhinovirus activity, HRV8",HRV8(MRH); HRV8,0.46
same,"Anti-Rhinovirus activity, HRV10",HRV10 (204-CV14); HRV10,1.8
same,"Anti-Rhinovirus activity, HRV2",HRV 2 (HGP); HRV2,0.54
same,IC50 HRV2,HRV 2 (HGP),0.54 µg/mL
same,"Anti-Rhinovirus activity, HRV89",HRV 89 (41617-Gallo); HRV89,0.57
same,IC50 HRV89,HRV 89 (41617-Gallo),0.57 µg/mL
same,"Anti-Rhinovirus activity, Clinical isolated strain",[1],1.9
same,"Anti-Rhinovirus activity, HRV3",HRV3(FEB); HRV3,2.9
same,IC50 Polio 1,[3],0.72 µg/mL
same,"Anti-Rhinovirus activity, HRV5",HRV5; HRV5,0.36
same,"Anti-Rhinovirus activity, HRV50",HRV50(A2#58); HRV50,0.20
same,"Anti-Rhinovirus activity, HRV14",HRV14 (1059); HRV14,0.74
same,IC50 HRV 14,HRV14 (1059),0.74 µg/mL
same,"Anti-Rhinovirus activity, HRV13",HRV13 (353); HRV13,0.17
same,"Anti-Rhinovirus activity, HRV31",HRV31 (41F); HRV31,0.29
same,"Anti-Rhinovirus activity, HRV33",HRV33 (1200); HRV33,0.20
same,IC50 CB4,[4],0.82 µg/mL
same,"Anti-Rhinovirus activity, HRV1A",HRV1A (E28); HRV1A,2.6
same,IC50 HRV 1A,HRV1A (E28),2.6 µg/mL
same,"Anti-Rhinovirus activity, HRV21",HRV21 (47); HRV21,0.20
same,Cytotoxicity CC50 HeLa,HeLa cells,>4 µg/mL
same,"Anti-Rhinovirus activity, HRV61",HRV61 (6669-CV39); HRV61,0.80
same,"Anti-Rhinovirus activity, HRV32",HRV32 (363); HRV32,0.61
same,IC50 CA7,[5],2.1 µg/mL
same,"Anti-Rhinovirus activity, HRV16",HRV16 (11757); HRV16,2.3
same,"Anti-Rhinovirus activity, HRV36",HRV36 (342H); HRV36,0.30
same,"Anti-Rhinovirus activity, HRV29",HRV29 (5582); HRV29,1.5
same,IC50 Echo 11,[6],0.35 µg/mL
same,"Anti-Rhinovirus activity, HRV41",HRV41 (56110); HRV41,0.20
same,"Anti-Rhinovirus activity, HRV39",HRV39 (209); HRV39,1.7
same,Cytotoxicity CC50 HeLa-S3,HeLa-S3 cells,>4 µg/mL
same,"Anti-Rhinovirus activity, HRV1B",[2]; HRV1B,0.30
same,IC50 HRV1B,[2],0.30 µg/mL
CCn1c2c(c(=O)c3c(C(C)C)c(OC)ccc31)Cc1ccccc1-2 [Compound B7],Cytotoxicity CC50 HeLa(Ohio),HeLa (Ohio strain)cells,>2.5 µg/mL
same,"Anti-Rhinovirus activity, HRV8",HRV8(MRH); HRV8,0.32
same,"Anti-Rhinovirus activity, HRV10",HRV10 (204-CV14); HRV10,0.41
same,"Anti-Rhinovirus activity, HRV2",HRV 2 (HGP); HRV2,0.36
same,IC50 HRV2,HRV 2 (HGP),0.36 µg/mL
same,"Anti-Rhinovirus activity, HRV89",HRV 89 (41617-Gallo); HRV89,0.30
same,IC50 HRV89,HRV 89 (41617-Gallo),0.30 µg/mL
same,"Anti-Rhinovirus activity, Clinical isolated strain",[1],0.50
same,"Anti-Rhinovirus activity, HRV3",HRV3(FEB); HRV3,0.49
same,IC50 Polio 1,[3],0.42 µg/mL
same,"Anti-Rhinovirus activity, HRV5",HRV5; HRV5,0.22
same,"Anti-Rhinovirus activity, HRV50",HRV50(A2#58); HRV50,0.12
same,"Anti-Rhinovirus activity, HRV14",HRV14 (1059); HRV14,0.49
same,IC50 HRV 14,HRV14 (1059),0.49 µg/mL
same,"Anti-Rhinovirus activity, HRV13",HRV13 (353); HRV13,0.13
same,"Anti-Rhinovirus activity, HRV31",HRV31 (41F); HRV31,0.13
same,"Anti-Rhinovirus activity, HRV33",HRV33 (1200); HRV33,0.097
same,IC50 CB4,[4],0.52 µg/mL
same,"Anti-Rhinovirus activity, HRV1A",HRV1A (E28); HRV1A,1.7
same,IC50 HRV 1A,HRV1A (E28),1.7 µg/mL
same,"Anti-Rhinovirus activity, HRV21",HRV21 (47); HRV21,0.11
same,Cytotoxicity CC50 HeLa,HeLa cells,>2.5 µg/mL
same,"Anti-Rhinovirus activity, HRV61",HRV61 (6669-CV39); HRV61,0.28
same,"Anti-Rhinovirus activity, HRV32",HRV32 (363); HRV32,0.30
same,IC50 CA7,[5],1.4 µg/mL
same,"Anti-Rhinovirus activity, HRV16",HRV16 (11757); HRV16,0.98
same,"Anti-Rhinovirus activity, HRV36",HRV36 (342H); HRV36,0.16
same,"Anti-Rhinovirus activity, HRV29",HRV29 (5582); HRV29,0.43
same,IC50 Echo 11,[6],0.25 µg/mL
same,"Anti-Rhinovirus activity, HRV41",HRV41 (56110); HRV41,0.064
same,"Anti-Rhinovirus activity, HRV39",HRV39 (209); HRV39,0.38
same,Cytotoxicity CC50 HeLa-S3,HeLa-S3 cells,>2.5 µg/mL
same,"Anti-Rhinovirus activity, HRV1B",[2]; HRV1B,0.20
same,IC50 HRV1B,[2],0.17 µg/mL

# Reference: patent US7109338B2, “1,2-disubstituted 1,4-dihydro-4-oxoquinoline compounds” (priority 1999, dated 2006)
